# Measured values as given in patent US20130171079A1, “COMPOSITION TO STABILISE KOJIC ACID” (Pangaea Laboratories Ltd., priority 2011, published 2013).
# Key:
# [1] = background statement; accelerated by heat, UV or low pH; cited from earlier work
# [2] = Colour-change stability test of 2% kojic acid in an aqueous cosmetic base with sodium metabisulphite and/or propyl gallate; type: physicochemical; details: over 42 days, room temperature, 2% kojic acid aqueous base
# Method: A test was conducted to measure the effect of sodium metabisulphite and propyl gallate on the stability of kojic acid in aqueous cosmetic or pharmaceutical compositions. In this regard kojic acid is known to change colour from a slight yellow to very dark yellow as it degrades, and so colour change was used as the indicator of stability vs. degradation. All samples contained 2% kojic acid in an aqueous cosmetic base. [table] Each sample was photographed and optically assessed against a 20-stage yellow colour spectrum, where 1 was a very pale straw yellow, and 20 was a dark yellow. Photographs were taken on day 1, day 7 and day 42. In between photographs, the samples were stored together at normal room temperature.
# [3] = Earlier experiments on stability (discolouration) of kojic acid solutions with stabilisers; type: physicochemical; details: two month period
# Description: One useful, if obvious, solution to the problem would be to add a preservative such as sodium metabisulphite. Sodium metabisulphite is in a class of preservatives that release sulphur dioxide. […] However this option is not enough for two reasons. Firstly, two months is not sufficient shelf life for a cosmetic or pharmaceutical composition. Secondly, a preferable format for a skin lightening composition would also include one or more other lightening ingredients, such as lactic acid, niacinamide and ascorbic acid. The net effect of these ingredients may lower the pH, and accelerate the degradation of kojic acid. This has been shown in experiments to overcome the stabilising effect of sodium metabisulphite during a two month period.
# It was then hypothesised that reducing agents or antioxidants may help by preventing free radical formation. Various antioxidants were tested without noticeable effect.
# Researchers expected the combination to deliver better results that propyl gallate, but worse results than sodium metabisulphite alone. Instead the kojic acid solution remained completely clear for more than two months. The result is certainly not additive and therefore must be due to some previously unknown synergy between sodium metabisulphite and propyl gallate.
Compound,stability of kojic acid in solution (in words) [1],effect of the additive on stability of kojic acid (in words) [2],stabilisation / discolouration of kojic acid solution (in words) [3]
O=c1cc(CO)occ1O [kojic acid],degrades within weeks in solution,,
CCCOC(=O)c1cc(O)c(O)c(O)c1 [propyl gallate],,worsened stability slightly,
O=S([O-])S(=O)(=O)[O-].[Na+].[Na+] [sodium metabisulphite],,improved stability slightly,keeping discolouration to a low level for up to two months
